From PubChem BioAssay (NCI)
Where “and” joins values, the source holds several entries; their conditions need not be identical. Equal values may be shown once.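 Test compounds were applied to cells in 96-well plates for 48 hours at 5 doses. GI50: concentration for 50% inhibition of growth. TGI: total growth inhibition.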

Columns and labels:
Test in all cases: NCI anticancer screen, dose series, 48 h
[1] = system: SK-MEL-28 melanoma
[2] = system: HL-60(TB) leukemia
[3] = system: RPMI-8226 leukemia
[4] = system: M14 melanoma
[5] = system: OVCAR-3 ovarian
[6] = system: SW-620 colon
[7] = system: HCT-15 colon
[8] = system: NCI-H460 lung
[9] = system: HS 578T breast
[10] = system: SNB-75 CNS

Structure (SMILES) | GI50 [1] | TGI [1] | GI50 [2] | TGI [2] | GI50 [3] | TGI [3] | GI50 [4] | TGI [4] | GI50 [5] | TGI [5] | GI50 [6] | TGI [6] | GI50 [7] | TGI [7] | GI50 [8] | TGI [8] | GI50 [9] | TGI [9] | GI50 [10] | TGI [10]
CNC(=O)c1c(NC(=O)c2ccc(C(C)(C)C)cc2)sc2c1CCC(=O)C2 | 0.506 µM | 1.87 µM | 0.261 µM | 1.58 µM | 0.0553 µM | 0.511 µM | 0.346 µM | 1.79 µM | 0.444 µM | 1.6 µM | 0.0984 µM | 1.27 µM | 0.12 µM | 1.27 µM | 0.352 µM | 1.47 µM | 0.38 µM | 3.07 µM | 0.343 µM | 1.44 µM
COc1ccc2c(c1)nc(C(=O)c1ccco1)c(C(F)(F)F)[n+]2[O-] | > 100 µM | > 100 µM | > 100 µM | > 100 µM | > 100 µM | > 100 µM | > 100 µM | > 100 µM | > 100 µM | > 100 µM | > 100 µM | > 100 µM | > 100 µM | > 100 µM | > 100 µM | > 100 µM | > 100 µM | > 100 µM | 51.4 µM | > 100 µM
CCC(C)[C@H](NC(=O)Nc1cc(C(F)(F)F)cc(C(F)(F)F)c1)C(=O)N[C@@H](Cc1cn(C)cn1)C(=O)OC (stereo not given in full) | 0.572 µM | 1.1 µM | 1.35 µM | 3.22 µM | 0.721 µM | 1.86 µM | 1.11 µM | 1.98 µM | 0.621 µM | 1.14 µM | 0.69 µM | 1.53 µM | 1.4 µM | 2.21 µM | 0.895 µM | 1.89 µM | 1.47 µM | 2.61 µM | 0.924 µM | 1.82 µM
CC1(C)CNc2cc(NC(=O)c3cccnc3NCc3ccncc3)ccc21 | 22.1 µM | > 100 µM | 28 µM | 81.5 µM | 21.9 µM | > 100 µM | 20.2 µM | 88.6 µM | 21.9 µM | > 77.5 µM | 48.2 µM | > 100 µM | 22.2 µM | > 87.7 µM | 32.3 µM | > 100 µM | 26.8 µM | > 100 µM | 1.87 µM | > 100 µM
Cc1ccc(/C=N/Nc2nc(Nc3ccccc3)nc(-n3nc(C)cc3C)n2)cc1 | 6.12 µM | > 100 µM | 2.51 µM | 84.8 µM | 3.19 µM | 12.9 µM | 2.47 µM | 10.8 µM | 3.2 µM | 43.6 µM | 5.75 µM | > 100 µM | 2.63 µM | 46.4 µM | 2.11 µM | 8.91 µM | 5.03 µM | 56.5 µM | 10.9 µM | > 100 µM
CNC(=O)c1cc(Oc2ccc(NC(=O)Nc3ccc(Cl)c(C(F)(F)F)c3)c(F)c2)ccn1 | 1.57 µM and 1.3 µM | 6.28 µM and 8.13 µM | 0.518 µM and 0.539 µM | 2.68 µM and 4.1 µM | 1.71 µM and 1.83 µM | 4.96 µM and 7.32 µM | 1.38 µM and 1.28 µM | 6.75 µM and 8.81 µM | 3.05 µM and 3.03 µM | 11.6 µM and > 10 µM | 2.23 µM and 2.47 µM | 14.9 µM and > 10 µM | 3 µM and 2.35 µM | > 32.9 µM and 9.96 µM | 2.67 µM and 2.86 µM | 9.42 µM and > 10 µM | 1.59 µM and 1.61 µM | 16.9 µM and > 10 µM | 1.71 µM and 1.67 µM | 7.01 µM and > 10 µM
COc1cc(/C=N/Nc2ncnc3c2cnn3-c2ccccc2)ccc1O | 18.5 µM | > 25 µM | 11.7 µM | > 25 µM | > 25 µM | > 25 µM | > 21.4 µM | > 25 µM | 7.18 µM | > 25 µM | 11.1 µM | > 25 µM | 4.06 µM | > 25 µM | 12.9 µM | > 25 µM | 2.18 µM | > 25 µM | 1.1 µM | > 7.39 µM
COc1ccc2c(c1)[nH]c(=O)c1c3cccc(F)c3cn21 | 0.351 µM | > 69.8 µM | 0.0183 µM | 0.0515 µM | 0.0295 µM | 0.27 µM | 0.0463 µM | > 100 µM | 0.0295 µM | 0.0774 µM | 0.0343 µM | 25.8 µM | 0.0458 µM | > 100 µM | 0.0442 µM | 11.7 µM | 0.0299 µM | 0.0904 µM | 0.0262 µM | 5.44 µM
Cc1cc2c(cc1Cl)S/C(=C/C(=O)O)C(Nc1ccc3ncsc3c1)=NS2(=O)=O | 32.4 µM | > 60.6 µM | 9.16 µM | > 100 µM | 1.68 µM | 19.3 µM | 12.7 µM | > 38.1 µM | 14 µM | 41.2 µM | 16.3 µM | > 56 µM | 27.4 µM | > 65.5 µM | 16.2 µM | > 100 µM | 9.81 µM | > 40.9 µM | > 100 µM | > 100 µM
COc1ccc2c(c1)c(-c1nc(-c3c[nH]c4ccncc34)cs1)cn2C | 1.63 µM | 3.04 µM | 1.68 µM | 3.5 µM | 1.83 µM | 3.83 µM | 1.78 µM | 3.26 µM | 1.88 µM | 3.34 µM | 1.75 µM | 3.27 µM | 1.25 µM | 2.58 µM | 1.73 µM | 3.31 µM | 2.03 µM | 4.02 µM | 1.52 µM | 2.91 µM
Cc1ccc(S(=O)(=O)SC(C)(C)C)cc1 |  | > 100 µM |  | 40.7 µM |  | 46.4 µM |  | > 88.8 µM |  | 39.3 µM |  | 47.9 µM |  | 53 µM |  | > 100 µM |  | > 100 µM |  | > 100 µM
CC1=C(SCCC(=O)OC(C[Se]C2=C(C)C(=O)c3ccccc3C2=O)C(=O)NCCCCCC(=O)OCc2ccccc2)C(=O)c2ccccc2C1=O (stereo not given) | 11.9 µM | 24.7 µM | 3.09 µM | 8.52 µM | 2.65 µM | 7.76 µM | 2.01 µM | 4.22 µM | 5.01 µM | 18.2 µM | 2.43 µM | 9.34 µM | 6.53 µM | 21.3 µM | 1.9 µM | 4.54 µM | 7.6 µM | > 100 µM | 11.5 µM | 23.8 µM
